# From article PMC3689638, “Cell cycle-dependent activity of the novel dual PI3K-MTORC1/2 inhibitor NVP-BGT226 in acute leukemia” (Molecular Cancer, 2013)
# pIC50: −log10 of the molar value. Entries after “also recorded” stand apart in the source; their conditions may differ.
# Tests used:
# [1] = tested on: Ba/F3 KIT D816Y; test: Inhibition of proliferation (XTT), isogenic Ba/F3 model; format: cell-based, murine; conditions: Mus musculus; for pIC50: BaF3; for viability at 0.01 µM: BaF3, 10 nM, read-out: Inhibition of proliferation At 10 nM (% alive); for viability at 0.1 µM: BaF3, 100 nM, read-out: Inhibition of proliferation At 100 nM (% alive)
# [2] = tested on: AKT phosphorylation (Ser473, Thr308); test: western immunoblot of AKT signaling, MOLM14 or K562 cells; format: cell-based, human
# Excerpt: For comparative analysis, additional lysates from cells treated with an ABL1 or FLT3 tyrosine kinase inhibitor (imatinib for K562 BCR-ABL1 cells, sunitinib for MOLM14 FLT3 ITD cells) as well as rapamycin were used.
# Rabbit anti-panAKT, panFLT3, panABL1 or anti-cleaved caspase 3 antibodies were used at a 1:500 to 1:1000 dilution. Rabbit anti-phospho-AKT antibodies detecting phosphorylated isoforms of T308-AKT, S473-AKT, S807/811-RB, S575-ULK1, T389-p70S6K, Y694-STAT5, FLT3, ABL1 or T202/Y204-ERK1/2 were used at a 1:250 to 1:1000 dilution. An anti-actin mouse monoclonal antibody was used as a loading control. All antibodies, if not otherwise indicated, were purchased from Cell Signaling Technology.
# Cell pellets were lysed with 100 to 150 μl of protein lysis buffer (50 mmol/L Tris, 150 mmol/L NaCl, 1% NP40, 0.25% deoxycholate with added inhibitors aprotinin, AEBSF, leupeptin, pepstatin, sodium orthovanadate, and sodium pyruvate, respectively phosphatase inhibitor cocktails „2“ and „1“ or „3“ (Sigma, St. Louis, MO). Protein from cell lysates (75 to 200 μg protein) was used for whole cell protein analysis after denaturing by Western immunoblot assays using a BioRad Criterion system. Nonspecific binding was blocked by incubating the blots in nonfat dry milk or BSA. Primary antibodies were incubated for one hour or over night, followed by several washes of Tris-buffered saline (TBS) containing 0.005% Tween 20. The appropriate secondary antibody was applied for 30‘, followed by several washes. Antibody-reactive proteins were detected using a LI-COR Odyssey® fluorescence optical system.
# [3] = tested on: Ba/F3 FLT3 ITD; test: Inhibition of proliferation (XTT), isogenic Ba/F3 model; format: cell-based, murine; conditions: for viability at 0.01 µM: 10 nM, read-out: Inhibition of proliferation At 10 nM (% alive); for viability at 0.1 µM: 100 nM, read-out: Inhibition of proliferation At 100 nM (% alive)
# [4] = tested on: Jurkat cells; test: XTT-based cellular proliferation assay, Jurkat; format: cell-based; conditions: Homo sapiens, read-out: IC50 cellular proliferation (linear regression analysis)
# [5] = tested on: MOLM14 cells; test: cell cycle analysis by PI-stain flow cytometry, MOLM14; format: cell-based, human; conditions: 72h
# Procedure: Accumulation of cells in the G1/G0, S or G2/M phases was monitored 6, 24 and 72 hours after application of either agent.
# A propidium iodide-based flow cytometry assay was assessed as described previously. In short, a propidium iodide stain assay is used to segregate cells according to the DNA content, which is graphically shown in a histogram plot (high content in G2/M, intermediate content in S-phase, low content in G1/G0 and lowest content in dead/apoptotic cells, which defines a sub-G1/G0 fraction),
# [6] = tested on: Ba/F3 FLT3 K663Q; test: Induction of apoptosis, isogenic Ba/F3 model; format: cell-based, murine
# Procedure: (§1) Translocation of phosphatidylserine from the inner to the outer leaflet of the plasma membrane as an early indicator of apoptosis was analyzed using an Annexin V-based assay (Immunotech, Marseilles, France) and a FACScalibur® flow cytometer loaded with CellQuest® analysis software (BD, Heidelberg, Germany).
# [7] = tested on: Ba/F3 FLT3 N841H; test: Induction of apoptosis, isogenic Ba/F3 model; format: cell-based, murine
# Procedure: as §1
# [8] = tested on: Ba/F3 FLT3 WT; test: Induction of apoptosis, isogenic Ba/F3 model; format: cell-based, murine; conditions: for pIC50: Mus musculus, BaF3
# Procedure: as §1
# [9] = tested on: Ba/F3 KIT D816V; test: Induction of apoptosis, isogenic Ba/F3 model; format: cell-based, murine
# Procedure: as §1
# [10] = tested on: Ba/F3 BCR/ABL1; test: Induction of apoptosis, isogenic Ba/F3 model; format: cell-based, murine
# Procedure: as §1
# [11] = tested on: Ba/F3 FLT3 ITD; test: Induction of apoptosis, isogenic Ba/F3 model; format: cell-based, murine; conditions: for pIC50: Mus musculus, not reached = > 5 000 nM
# Procedure: as §1
# [12] = tested on: Ba/F3 Parental (w/ IL3); test: Induction of apoptosis, isogenic Ba/F3 model; format: cell-based, murine
# Procedure: as §1
# [13] = tested on: Ba/F3 KIT D816F; test: Induction of apoptosis, isogenic Ba/F3 model; format: cell-based, murine; conditions: for pIC50: Mus musculus, BaF3
# Procedure: as §1
# [14] = tested on: Ba/F3 KIT D816Y; test: Induction of apoptosis, isogenic Ba/F3 model; format: cell-based, murine; conditions: for pIC50: Mus musculus, BaF3
# Procedure: as §1
# [15] = tested on: Ba/F3 FLT3 D835Y; test: Induction of apoptosis, isogenic Ba/F3 model; format: cell-based, murine
# Procedure: as §1
# [16] = Mus musculus, BaF3, not reached = > 5 000 nM
smiles,measurement,setting,value
COc1ccc(-c2ccc3ncc4c(c3c2)n(-c2ccc(N3CCNCC3)c(C(F)(F)F)c2)c(=O)n4C)cn1 [NVP-BGT226],pIC50,[1],7.19
same,viability at 0.01 µM,[1],112%
same,viability at 0.1 µM,[1],26%
same,phosphorylation of AKT (immunoblot),[2],potently suppressed phosphorylation of AKT at Ser473 as well as Thr308
same,viability at 0.01 µM,[3]; Mus musculus,4%
same,viability at 0.1 µM,[3]; Mus musculus,9%
same,pIC50,[4],7.23
same,sub-G1,[5]; 500 nM,50%
same,Induction of apoptosis At 1000 nM (% apopt.),[6],26%
same,Induction of apoptosis At 5000 nM (% apopt.),[6],98%
same,pIC50,[6]; [16],5.95
same,Induction of apoptosis At 1000 nM (% apopt.),[7],18%
same,Induction of apoptosis At 5000 nM (% apopt.),[7],99%
same,pIC50,[7]; [16],5.92
same,Induction of apoptosis At 1000 nM (% apopt.),[8],41%
same,Induction of apoptosis At 5000 nM (% apopt.),[8],99%
same,pIC50,[8],6.46
same,Induction of apoptosis At 1000 nM (% apopt.),[9],7%
same,Induction of apoptosis At 5000 nM (% apopt.),[9],99%
same,pIC50,[9]; [16],5.75
same,Induction of apoptosis At 1000 nM (% apopt.),[10],56%
same,Induction of apoptosis At 5000 nM (% apopt.),[10],97%
same,pIC50,[10]; [16],6.58
same,Induction of apoptosis At 1000 nM (% apopt.),[11],38%
same,Induction of apoptosis At 5000 nM (% apopt.),[11],98%
same,pIC50,[11],5.97
same,Induction of apoptosis At 1000 nM (% apopt.),[12],7%
same,Induction of apoptosis At 5000 nM (% apopt.),[12],99%
same,pIC50,[12]; [16],5.74
same,Induction of apoptosis At 1000 nM (% apopt.),[13],87%
same,Induction of apoptosis At 5000 nM (% apopt.),[13],89%
same,pIC50,[13],6.59
same,Induction of apoptosis At 1000 nM (% apopt.),[14],89%
same,Induction of apoptosis At 5000 nM (% apopt.),[14],96%
same,pIC50,[14],6.93
same,Induction of apoptosis At 1000 nM (% apopt.),[15],33%
same,Induction of apoptosis At 5000 nM (% apopt.),[15],98%
same,pIC50,[15]; [16],5.97
Cn1c(=O)n(-c2ccc(C(C)(C)C#N)cc2)c2c3cc(-c4cnc5ccccc5c4)ccc3ncc21 [NVP-BEZ235],pIC50,[1],7.14
same,viability at 0.01 µM,[1],64%
same,viability at 0.1 µM,[1],62%
same,phosphorylation of AKT (immunoblot),[2],potently suppressed phosphorylation of AKT at Ser473 as well as Thr308
same,pIC50,[3],8.15
same,viability at 0.01 µM,[3]; Mus musculus,13%
same,viability at 0.1 µM,[3]; Mus musculus,4%
same,pIC50,"[3]; Mus musculus, Ba/F3 FLT3-ITD",> 8.00
same,pIC50,[4],7.30
same,sub-G1,[5]; 1000 nM,19%
same,sub-G1,[5]; 10 000 nM,35%
same,Induction of apoptosis At 1000 nM (% apopt.),[6],17%
same,Induction of apoptosis At 5000 nM (% apopt.),[6],16%
same,Induction of apoptosis IC50,[6]; not reached = > 5 000 nM,Not reached
same,Induction of apoptosis At 1000 nM (% apopt.),[7],19%
same,Induction of apoptosis At 5000 nM (% apopt.),[7],22%
same,Induction of apoptosis IC50,[7]; not reached = > 5 000 nM,Not reached
same,Induction of apoptosis At 1000 nM (% apopt.),[8],38%
same,Induction of apoptosis At 5000 nM (% apopt.),[8],40%
same,pIC50,[8],5.08
same,Induction of apoptosis At 1000 nM (% apopt.),[9],4%
same,Induction of apoptosis At 5000 nM (% apopt.),[9],23%
same,Induction of apoptosis IC50,[9]; not reached = > 5 000 nM,Not reached
same,Induction of apoptosis At 1000 nM (% apopt.),[10],38%
same,Induction of apoptosis At 5000 nM (% apopt.),[10],39%
same,Induction of apoptosis IC50,[10]; not reached = > 5 000 nM,failed to achieve IC50; also recorded: Not reached
same,Induction of apoptosis At 1000 nM (% apopt.),[11],19%
same,Induction of apoptosis At 5000 nM (% apopt.),[11],27%
same,pIC50,[11],< 5.00
same,Induction of apoptosis At 1000 nM (% apopt.),[12],3%
same,Induction of apoptosis At 5000 nM (% apopt.),[12],6%
same,Induction of apoptosis IC50,[12]; not reached = > 5 000 nM,Not reached*
same,Induction of apoptosis At 1000 nM (% apopt.),[13],40%
same,Induction of apoptosis At 5000 nM (% apopt.),[13],87%
same,pIC50,[13],5.91
same,Induction of apoptosis At 1000 nM (% apopt.),[14],5%
same,Induction of apoptosis At 5000 nM (% apopt.),[14],73%
same,pIC50,[14],5.87
same,Induction of apoptosis At 1000 nM (% apopt.),[15],19%
same,Induction of apoptosis At 5000 nM (% apopt.),[15],28%
same,Induction of apoptosis IC50,[15]; not reached = > 5 000 nM,Not reached
